The values below are quoted from earlier work in US10821087B2, “Stabilized injectable emulsion of Propofol and Ketamine” (NEON LABORATORIES LIMITED, priority 2015, dated 2020).

Molecules are shown by their SMILES.

The data set has as its system Propofol induced pain. The settings on record: 100 μg/kg Ketamine administered just before Propofol.

On to `CNC1(c2ccccc2Cl)CCCCC1=O` (centres unmarked) [Ketamine], for which the adverse hemodynamic effects result is “without significant adverse hemodynamic effects”; the “incidence and intensity of Propofol induced pain” value is “reduce the incidence and intensity of Propofol induced pain”.
